Assay results taken from ChEMBL document CHEMBL1201862, “PubChem BioAssay data set” (2004).
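Tested at 5 concentrations; 48 h exposure; 96-well plates; endpoints linearly interpolated, else capped at highest concentration. Here, GI50 denotes the concentration required for 50% inhibition of growth.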 Activity calls are given as the source filed them. Cut-off read from the data, not from the text of the source: active = GI50 up to about 1.1 µM and inactive = higher.

How the values were obtained:
Assay in all cases: NCI anticancer screen, dose series, 48 h
A498 = system: A498
U-251 = system: U-251
M14 = system: M14
SK-OV-3 = system: SK-OV-3
SR = system: SR
HCT-116 = system: HCT-116
HOP-62 = system: HOP-62
HL-60 = system: HL-60
MCF7 = system: MCF7
SK-MEL-28 = system: SK-MEL-28
SN12C = system: SN12C
K562 = system: K562
UACC-257 = system: UACC-257
OVCAR-8 = system: OVCAR-8
OVCAR-4 = system: OVCAR-4
SNB-19 = system: SNB-19
IGROV-1 = system: IGROV-1
NCI-H226 = system: NCI-H226
RXF 393 = system: RXF 393
NCI/ADR-RES = system: NCI/ADR-RES
NCI-H460 = system: NCI-H460
SNB-75 = system: SNB-75
T47D = system: T47D
COLO 205 = system: COLO 205
SF-295 = system: SF-295
MDA-MB-435 = system: MDA-MB-435
NCI-H23 = system: NCI-H23
EKVX = system: EKVX
KM12 = system: KM12
Hs-578T = system: Hs-578T
UO-31 = system: UO-31
MDA-MB-231 = system: MDA-MB-231
OVCAR-3 = system: OVCAR-3
LOX IMVI = system: LOX IMVI
SF-268 = system: SF-268
RPMI-8226 = system: RPMI-8226
UACC-62 = system: UACC-62
SK-MEL-2 = system: SK-MEL-2
HCC 2998 = system: HCC 2998
OVCAR-5 = system: OVCAR-5
HT-29 = system: HT-29
CCRF-CEM = system: CCRF-CEM
HCT-15 = system: HCT-15
Malme-3M = system: Malme-3M
SK-MEL-5 = system: SK-MEL-5
CAKI-1 = system: CAKI-1
BT-549 = system: BT-549
SF-539 = system: SF-539
DU-145 = system: DU-145
MDA-N = system: MDA-N
SW-620 = system: SW-620
PC-3 = system: PC-3
A549 = system: A549
786-0 = system: 786-0
MOLT-4 = system: MOLT-4
HOP-92 = system: HOP-92
NCI-H522 = system: NCI-H522
TK-10 = system: TK-10
ACHN = system: ACHN

SMILES: CCOC(=O)c1cc(Br)c(-c2onc(C)c2Br)[nH]1
- GI50 (A498): 48.2 µM (inactive)
- GI50 (U-251): 19.1 µM (inactive)
- GI50 (M14): 66.2 µM (inactive)
- GI50 (SK-OV-3): 25.9 µM (inactive)
- GI50 (SR): > 100 µM (inactive)
- GI50 (HCT-116): 28.8 µM (inactive)
- GI50 (HOP-62): 18.3 µM (inactive)
- GI50 (HL-60): > 100 µM (inactive)
- GI50 (MCF7): > 100 µM (inactive)
- GI50 (SK-MEL-28): > 100 µM (inactive)
- GI50 (SN12C): 80.7 µM (inactive)
- GI50 (K562): > 100 µM (inactive)
- GI50 (UACC-257): 93.5 µM (inactive)
- GI50 (OVCAR-8): 27.6 µM (inactive)
- GI50 (OVCAR-4): 88.1 µM (inactive)
- GI50 (SNB-19): 24.9 µM (inactive)
- GI50 (IGROV-1): 40.2 µM (inactive)
- GI50 (NCI-H226): 30.1 µM (inactive)
- GI50 (RXF 393): 16.7 µM (inactive)
- GI50 (NCI/ADR-RES): 40.6 µM (inactive)
- GI50 (NCI-H460): 65.6 µM (inactive)
- GI50 (SNB-75): > 100 µM (inactive)
- GI50 (T47D): > 100 µM (inactive)
- GI50 (COLO 205): > 100 µM (inactive)
- GI50 (SF-295): 43.1 µM (inactive)
- GI50 (MDA-MB-435): > 100 µM (inactive)
- GI50 (NCI-H23): 49.3 µM (inactive)
- GI50 (EKVX): 27.9 µM (inactive)
- GI50 (KM12): > 100 µM (inactive)
- GI50 (Hs-578T): 26.7 µM (inactive)
- GI50 (UO-31): > 100 µM (inactive)
- GI50 (MDA-MB-231): 17.1 µM (inactive)
- GI50 (OVCAR-3): > 100 µM (inactive)
- GI50 (LOX IMVI): 98.6 µM (inactive)
- GI50 (SF-268): 41.4 µM (inactive)
- GI50 (RPMI-8226): > 100 µM (inactive)
- GI50 (UACC-62): 36.9 µM (inactive)
- GI50 (SK-MEL-2): 80.7 µM (inactive)
- GI50 (HCC 2998): 53.7 µM (inactive)
- GI50 (OVCAR-5): > 100 µM (inactive)
- GI50 (HT-29): > 100 µM (inactive)
- GI50 (CCRF-CEM): > 100 µM (inactive)
- GI50 (HCT-15): > 100 µM
- GI50 (Malme-3M): 34.4 µM (inactive)
- GI50 (SK-MEL-5): 42.1 µM (inactive)
- GI50 (CAKI-1): 45.7 µM (inactive)
- GI50 (BT-549): 43 µM (inactive)
- GI50 (SF-539): 31.6 µM (inactive)
- GI50 (DU-145): > 100 µM (inactive)
- GI50 (MDA-N): > 100 µM (inactive)
- GI50 (SW-620): > 100 µM (inactive)
- GI50 (PC-3): > 100 µM (inactive)
- GI50 (A549): 56.1 µM (inactive)
- GI50 (786-0): 21.6 µM (inactive)
- GI50 (MOLT-4): > 100 µM (inactive)
- GI50 (HOP-92): 48.1 µM (inactive)

SMILES: O=C([C@H](O)[C@@H](O)c1cccc(Cl)c1)C12CC3CC(CC(C3)C1)C2
- GI50 (NCI-H522): 2.23 µM (inactive)
- GI50 (A498): 2.31 µM (inactive)
- GI50 (U-251): 1.53 µM (inactive)
- GI50 (M14): 2.45 µM (inactive)
- GI50 (SK-OV-3): 8.71 µM (inactive)
- GI50 (SR): 2.07 µM (inactive)
- GI50 (HCT-116): 1.86 µM (inactive)
- GI50 (HOP-62): 2.69 µM (inactive)
- GI50 (HL-60): 0.483 µM (active)
- GI50 (MCF7): 0.667 µM (active)
- GI50 (SK-MEL-28): 3.21 µM (inactive)
- GI50 (SN12C): 1.61 µM (inactive)
- GI50 (K562): 2.98 µM (inactive)
- GI50 (UACC-257): 2.21 µM (inactive)
- GI50 (OVCAR-8): 1.88 µM (inactive)
- GI50 (OVCAR-4): 2.4 µM (inactive)
- GI50 (SNB-19): 1.82 µM (inactive)
- GI50 (IGROV-1): 1.34 µM (inactive)
- GI50 (NCI-H226): 4.32 µM (inactive)
- GI50 (RXF 393): 2.37 µM (inactive)
- GI50 (NCI/ADR-RES): 2.27 µM (inactive)
- GI50 (NCI-H460): 1.85 µM (inactive)
- GI50 (SNB-75): 1.72 µM (inactive)
- GI50 (T47D): 2.16 µM (inactive)
- GI50 (TK-10): 1.98 µM (inactive)
- GI50 (ACHN): 1.91 µM (inactive)
- GI50 (COLO 205): 2.13 µM (inactive)
- GI50 (SF-295): 3.15 µM (inactive)
- GI50 (MDA-MB-435): 2.58 µM (inactive)
- GI50 (NCI-H23): 1.79 µM (inactive)
- GI50 (EKVX): 2.07 µM (inactive)
- GI50 (KM12): 2.26 µM (inactive)
- GI50 (Hs-578T): 2.61 µM (inactive)
- GI50 (UO-31): 1.9 µM (inactive)
- GI50 (MDA-MB-231): 2.12 µM (inactive)
- GI50 (OVCAR-3): 1.94 µM (inactive)
- GI50 (LOX IMVI): 1.22 µM (inactive)
- GI50 (SF-268): 1.81 µM (inactive)
- GI50 (RPMI-8226): 0.838 µM (active)
- GI50 (UACC-62): 1.73 µM (inactive)
- GI50 (SK-MEL-2): 1.95 µM (inactive)
- GI50 (HCC 2998): 2.11 µM (inactive)
- GI50 (OVCAR-5): 3.1 µM (inactive)
- GI50 (HT-29): 2.37 µM (inactive)
- GI50 (CCRF-CEM): 1.14 µM (inactive)
- GI50 (HCT-15): 2.24 µM
- GI50 (Malme-3M): 4.81 µM (inactive)
- GI50 (SK-MEL-5): 4.13 µM (inactive)
- GI50 (CAKI-1): 2.08 µM (inactive)
- GI50 (BT-549): 1.87 µM (inactive)
- GI50 (SF-539): 1.77 µM (inactive)
- GI50 (DU-145): 2.25 µM (inactive)
- GI50 (MDA-N): 1.93 µM (inactive)
- GI50 (SW-620): 2.06 µM (inactive)
- GI50 (PC-3): 1.87 µM (inactive)
- GI50 (A549): 2.19 µM (inactive)
- GI50 (786-0): 1.05 µM (active)
- GI50 (MOLT-4): 2.84 µM (inactive)

SMILES: Nc1cc(F)ccc1CC(=O)O
- GI50 (NCI-H522): > 100 µM (inactive)
- GI50 (A498): > 100 µM (inactive)
- GI50 (U-251): > 100 µM (inactive)
- GI50 (M14): > 100 µM (inactive)
- GI50 (SK-OV-3): > 100 µM (inactive)
- GI50 (SR): > 100 µM (inactive)
- GI50 (HCT-116): > 100 µM (inactive)
- GI50 (HOP-62): > 100 µM (inactive)
- GI50 (HL-60): > 100 µM (inactive)
- GI50 (MCF7): > 100 µM (inactive)
- GI50 (SK-MEL-28): > 100 µM (inactive)
- GI50 (SN12C): > 100 µM (inactive)
- GI50 (K562): > 100 µM (inactive)
- GI50 (UACC-257): > 100 µM (inactive)
- GI50 (OVCAR-8): > 100 µM (inactive)
- GI50 (SNB-19): > 100 µM (inactive)
- GI50 (IGROV-1): > 100 µM (inactive)
- GI50 (NCI-H226): > 100 µM (inactive)
- GI50 (RXF 393): > 100 µM (inactive)
- GI50 (NCI/ADR-RES): > 100 µM (inactive)
- GI50 (SNB-75): > 100 µM (inactive)
- GI50 (T47D): > 100 µM (inactive)
- GI50 (TK-10): > 100 µM (inactive)
- GI50 (ACHN): > 100 µM (inactive)
- GI50 (COLO 205): > 100 µM (inactive)
- GI50 (SF-295): > 100 µM (inactive)
- GI50 (MDA-MB-435): > 100 µM (inactive)
- GI50 (NCI-H23): > 100 µM (inactive)
- GI50 (EKVX): > 100 µM (inactive)
- GI50 (KM12): > 100 µM (inactive)
- GI50 (Hs-578T): > 100 µM (inactive)
- GI50 (UO-31): > 100 µM (inactive)
- GI50 (MDA-MB-231): > 100 µM (inactive)
- GI50 (LOX IMVI): > 100 µM (inactive)
- GI50 (SF-268): > 100 µM (inactive)
- GI50 (RPMI-8226): > 100 µM (inactive)
- GI50 (UACC-62): > 100 µM (inactive)
- GI50 (SK-MEL-2): > 100 µM (inactive)
- GI50 (HCC 2998): > 100 µM (inactive)
- GI50 (OVCAR-5): > 100 µM (inactive)
- GI50 (HT-29): > 100 µM (inactive)
- GI50 (CCRF-CEM): > 100 µM (inactive)
- GI50 (HCT-15): > 100 µM
- GI50 (Malme-3M): > 100 µM (inactive)
- GI50 (SK-MEL-5): > 100 µM (inactive)
- GI50 (CAKI-1): > 100 µM (inactive)
- GI50 (BT-549): 79.3 µM (inactive)
- GI50 (SF-539): > 100 µM (inactive)
- GI50 (DU-145): > 100 µM (inactive)
- GI50 (MDA-N): > 100 µM (inactive)
- GI50 (SW-620): > 100 µM (inactive)
- GI50 (PC-3): > 100 µM (inactive)
- GI50 (A549): > 100 µM (inactive)
- GI50 (786-0): > 100 µM (inactive)
- GI50 (MOLT-4): > 100 µM (inactive)
